Data taken from ChEMBL document CHEMBL4507311, “Data for DCP probe A-1155463” (2021).

How the values were obtained:
[1] = biological target: Sigma intracellular receptor 2 (Homo sapiens, UniProt Q5BJF2); assay: GPCRScan assay: inhibition of Sigma 2; parameters: radioligand conc. used [nm] 5.0, parental cells HEKT
[2] = tested on: Tyrosine-protein kinase ABL1 (Homo sapiens), P00519 [F317I]; details: Compound concentration 1000.0 nM
[3] = tested on: Tyrosine-protein kinase ABL1 (Homo sapiens), P00519 [H396P]; details: Compound concentration 1000.0 nM
[4] = tested on: Tyrosine-protein kinase ABL1 (Homo sapiens), P00519 [M351T]; details: Compound concentration 1000.0 nM
[5] = tested on: ALK tyrosine kinase receptor (Homo sapiens), Q9UM73 [L1196M]; details: Compound concentration 1000.0 nM
[6] = biological target: Serine/threonine-protein kinase BRSK2 (Homo sapiens) (UniProt Q8IWQ3); details: Compound concentration 1000.0 nM
[7] = biological target: Cyclin-dependent kinase-like 3 (Homo sapiens) (UniProt Q8IVW4); details: Compound concentration 1000.0 nM
[8] = biological target: Serine/threonine-protein kinase DCLK2 (Homo sapiens) (UniProt Q8N568); details: Compound concentration 1000.0 nM
[9] = tested on: Epidermal growth factor receptor (Homo sapiens), P00533 [UNDEFINED MUTATION]; details: Compound concentration 1000.0 nM
[10] = biological target: Eukaryotic translation initiation factor 2-alpha kinase 1 (Homo sapiens) (UniProt Q9BQI3); details: Compound concentration 1000.0 nM
[11] = biological target: Mitogen-activated protein kinase 4 (Homo sapiens) (UniProt P31152); details: Compound concentration 1000.0 nM
[12] = biological target: Receptor-type tyrosine-protein kinase FLT3 (Homo sapiens) (UniProt P36888); details: Compound concentration 1000.0 nM
[13] = biological target: Insulin receptor-related protein (Homo sapiens) (UniProt P14616); details: Compound concentration 1000.0 nM
[14] = biological target: Interleukin-1 receptor-associated kinase 3 (Homo sapiens) (UniProt Q9Y616); details: Compound concentration 1000.0 nM
[15] = biological target: Tyrosine-protein kinase ITK/TSK (Homo sapiens) (UniProt Q08881); details: Compound concentration 1000.0 nM
[16] = biological target: Serine/threonine-protein kinase LATS2 (Homo sapiens) (UniProt Q9NRM7); details: Compound concentration 1000.0 nM
[17] = biological target: Tyrosine-protein kinase Lck (Homo sapiens) (UniProt P06239); details: Compound concentration 1000.0 nM
[18] = biological target: Mitogen-activated protein kinase kinase kinase 13 (Homo sapiens) (UniProt O43283); details: Compound concentration 1000.0 nM
[19] = biological target: Serine/threonine-protein kinase MAK (Homo sapiens) (UniProt P20794); details: Compound concentration 1000.0 nM
[20] = biological target: Mitogen-activated protein kinase kinase kinase 1 (Homo sapiens) (UniProt Q13233); details: Compound concentration 1000.0 nM
[21] = biological target: Mitogen-activated protein kinase kinase kinase kinase 5 (Homo sapiens) (UniProt Q9Y4K4); details: Compound concentration 1000.0 nM
[22] = biological target: Dual specificity mitogen-activated protein kinase kinase 3 (Homo sapiens) (UniProt P46734); details: Compound concentration 1000.0 nM
[23] = biological target: Serine/threonine-protein kinase Nek5 (Homo sapiens) (UniProt Q6P3R8); details: Compound concentration 1000.0 nM
[24] = biological target: Mitogen-activated protein kinase 13 (Homo sapiens) (UniProt O15264); details: Compound concentration 1000.0 nM
[25] = biological target: Calcium-dependent protein kinase 1 (Plasmodium falciparum) (UniProt P62344); details: Compound concentration 1000.0 nM
[26] = biological target: Cyclin-dependent kinase 2 homolog (Plasmodium falciparum (isolate 3D7)) (UniProt P61075); details: Compound concentration 1000.0 nM
[27] = biological target: Phosphatidylinositol 4-kinase beta (Homo sapiens) (UniProt Q9UBF8); details: Compound concentration 1000.0 nM
[28] = biological target: Serine/threonine-protein kinase PLK3 (Homo sapiens) (UniProt Q9H4B4); details: Compound concentration 1000.0 nM
[29] = biological target: cAMP-dependent protein kinase catalytic subunit PRKX (Homo sapiens) (UniProt P51817); details: Compound concentration 1000.0 nM
[30] = biological target: Ribosomal protein S6 kinase alpha-4 (Homo sapiens) (UniProt O75676); details: Compound concentration 1000.0 nM
[31] = biological target: Serine/threonine-protein kinase SIK1 (Homo sapiens) (UniProt P57059); details: Compound concentration 1000.0 nM
[32] = biological target: TGF-beta receptor type-2 (Homo sapiens) (UniProt P37173); details: Compound concentration 1000.0 nM
[33] = biological target: Serine/threonine-protein kinase TNNI3K (Homo sapiens) (UniProt Q59H18); details: Compound concentration 1000.0 nM
[34] = biological target: High affinity nerve growth factor receptor (Homo sapiens) (UniProt P04629); details: Compound concentration 1000.0 nM
[35] = biological target: Serine/threonine-protein kinase WNK1 (Homo sapiens) (UniProt Q9H4A3); details: Compound concentration 1000.0 nM
[36] = biological target: Serine/threonine-protein kinase 32B (Homo sapiens) (UniProt Q9NY57); details: Compound concentration 1000.0 nM
[37] = biological target: T1, 5-hydroxytryptamine receptor 3A (Homo sapiens) (UniProt P46098); details: Compound concentration 10.0 uM
T1 sequence (whole entry): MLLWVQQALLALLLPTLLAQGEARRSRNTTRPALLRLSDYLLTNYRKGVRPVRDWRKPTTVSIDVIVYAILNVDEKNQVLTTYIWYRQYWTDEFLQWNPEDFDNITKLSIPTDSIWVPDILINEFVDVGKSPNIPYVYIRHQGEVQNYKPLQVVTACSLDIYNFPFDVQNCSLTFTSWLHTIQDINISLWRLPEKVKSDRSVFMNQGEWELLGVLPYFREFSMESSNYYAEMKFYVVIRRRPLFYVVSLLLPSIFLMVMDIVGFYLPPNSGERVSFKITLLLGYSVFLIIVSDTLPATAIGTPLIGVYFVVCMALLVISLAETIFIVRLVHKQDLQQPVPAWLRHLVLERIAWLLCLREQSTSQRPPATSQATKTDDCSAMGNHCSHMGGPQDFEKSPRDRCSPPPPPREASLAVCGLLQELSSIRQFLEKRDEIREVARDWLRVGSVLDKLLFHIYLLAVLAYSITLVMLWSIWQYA

[38] = biological target: D(4) dopamine receptor (Homo sapiens) (UniProt P21917); details: Compound concentration 10.0 uM

Sequence of Serine/threonine-protein kinase LATS2 (Homo sapiens) (Q9NRM7 whole entry): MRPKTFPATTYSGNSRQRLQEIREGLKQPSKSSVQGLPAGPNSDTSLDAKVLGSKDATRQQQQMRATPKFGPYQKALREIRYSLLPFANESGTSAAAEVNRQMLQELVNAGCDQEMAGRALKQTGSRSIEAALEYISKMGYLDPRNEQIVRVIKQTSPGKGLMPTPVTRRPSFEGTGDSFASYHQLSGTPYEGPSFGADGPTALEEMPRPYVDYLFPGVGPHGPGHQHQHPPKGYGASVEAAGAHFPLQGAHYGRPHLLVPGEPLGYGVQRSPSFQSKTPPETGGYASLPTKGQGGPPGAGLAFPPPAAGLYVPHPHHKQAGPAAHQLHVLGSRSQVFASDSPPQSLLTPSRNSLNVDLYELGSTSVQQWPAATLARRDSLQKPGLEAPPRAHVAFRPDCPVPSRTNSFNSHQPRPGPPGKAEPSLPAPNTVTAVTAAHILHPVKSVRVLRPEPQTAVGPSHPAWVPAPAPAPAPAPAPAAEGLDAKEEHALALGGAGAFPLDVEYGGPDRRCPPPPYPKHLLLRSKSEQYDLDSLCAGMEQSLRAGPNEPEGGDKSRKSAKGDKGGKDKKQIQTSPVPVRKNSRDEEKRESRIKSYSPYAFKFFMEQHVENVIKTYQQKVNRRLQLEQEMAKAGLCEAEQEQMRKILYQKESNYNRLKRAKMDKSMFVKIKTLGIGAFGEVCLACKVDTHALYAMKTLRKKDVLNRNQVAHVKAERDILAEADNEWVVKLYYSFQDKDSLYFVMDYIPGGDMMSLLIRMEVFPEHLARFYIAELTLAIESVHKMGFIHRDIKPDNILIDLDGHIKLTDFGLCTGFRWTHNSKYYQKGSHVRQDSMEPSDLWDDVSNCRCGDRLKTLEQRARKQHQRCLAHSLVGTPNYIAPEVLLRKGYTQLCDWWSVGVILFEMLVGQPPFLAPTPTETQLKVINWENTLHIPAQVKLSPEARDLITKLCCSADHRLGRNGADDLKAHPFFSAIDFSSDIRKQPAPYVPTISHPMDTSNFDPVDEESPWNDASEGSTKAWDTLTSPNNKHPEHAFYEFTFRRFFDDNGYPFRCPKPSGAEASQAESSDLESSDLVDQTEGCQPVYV
Sequence of Tyrosine-protein kinase ITK/TSK (Homo sapiens) (Q08881 whole entry): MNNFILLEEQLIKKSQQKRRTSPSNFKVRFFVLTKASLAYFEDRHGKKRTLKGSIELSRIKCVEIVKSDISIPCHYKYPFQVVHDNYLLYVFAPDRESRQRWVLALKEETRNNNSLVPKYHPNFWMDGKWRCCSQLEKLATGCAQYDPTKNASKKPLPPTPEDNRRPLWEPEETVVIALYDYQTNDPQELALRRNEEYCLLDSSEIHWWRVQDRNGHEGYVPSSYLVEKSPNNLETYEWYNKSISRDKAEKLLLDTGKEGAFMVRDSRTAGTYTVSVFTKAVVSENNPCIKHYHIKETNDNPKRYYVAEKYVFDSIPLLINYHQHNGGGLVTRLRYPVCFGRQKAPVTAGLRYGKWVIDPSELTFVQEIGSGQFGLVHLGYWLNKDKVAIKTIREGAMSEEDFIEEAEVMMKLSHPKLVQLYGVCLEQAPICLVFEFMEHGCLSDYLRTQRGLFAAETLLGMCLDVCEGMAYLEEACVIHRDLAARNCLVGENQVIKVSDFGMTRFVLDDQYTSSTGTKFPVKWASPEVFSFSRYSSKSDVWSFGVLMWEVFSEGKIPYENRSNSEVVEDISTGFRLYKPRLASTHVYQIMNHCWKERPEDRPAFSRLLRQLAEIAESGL
Sequence of TGF-beta receptor type-2 (Homo sapiens) (P37173 whole entry): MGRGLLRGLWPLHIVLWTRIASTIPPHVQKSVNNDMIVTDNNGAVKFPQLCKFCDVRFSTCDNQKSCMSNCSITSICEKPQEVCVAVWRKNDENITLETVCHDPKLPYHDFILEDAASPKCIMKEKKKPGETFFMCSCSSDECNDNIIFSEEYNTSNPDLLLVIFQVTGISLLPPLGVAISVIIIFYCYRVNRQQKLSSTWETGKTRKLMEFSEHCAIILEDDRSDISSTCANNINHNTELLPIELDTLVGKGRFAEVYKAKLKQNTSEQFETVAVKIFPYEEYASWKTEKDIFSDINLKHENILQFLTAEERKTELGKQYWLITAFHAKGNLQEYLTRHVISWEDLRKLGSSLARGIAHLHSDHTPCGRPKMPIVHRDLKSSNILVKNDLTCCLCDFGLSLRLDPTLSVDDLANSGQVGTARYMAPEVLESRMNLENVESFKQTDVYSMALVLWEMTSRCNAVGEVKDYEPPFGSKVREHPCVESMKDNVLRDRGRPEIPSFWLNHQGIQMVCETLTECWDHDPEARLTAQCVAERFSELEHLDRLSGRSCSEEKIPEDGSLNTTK
Sequence of Serine/threonine-protein kinase BRSK2 (Homo sapiens) (Q8IWQ3 whole entry): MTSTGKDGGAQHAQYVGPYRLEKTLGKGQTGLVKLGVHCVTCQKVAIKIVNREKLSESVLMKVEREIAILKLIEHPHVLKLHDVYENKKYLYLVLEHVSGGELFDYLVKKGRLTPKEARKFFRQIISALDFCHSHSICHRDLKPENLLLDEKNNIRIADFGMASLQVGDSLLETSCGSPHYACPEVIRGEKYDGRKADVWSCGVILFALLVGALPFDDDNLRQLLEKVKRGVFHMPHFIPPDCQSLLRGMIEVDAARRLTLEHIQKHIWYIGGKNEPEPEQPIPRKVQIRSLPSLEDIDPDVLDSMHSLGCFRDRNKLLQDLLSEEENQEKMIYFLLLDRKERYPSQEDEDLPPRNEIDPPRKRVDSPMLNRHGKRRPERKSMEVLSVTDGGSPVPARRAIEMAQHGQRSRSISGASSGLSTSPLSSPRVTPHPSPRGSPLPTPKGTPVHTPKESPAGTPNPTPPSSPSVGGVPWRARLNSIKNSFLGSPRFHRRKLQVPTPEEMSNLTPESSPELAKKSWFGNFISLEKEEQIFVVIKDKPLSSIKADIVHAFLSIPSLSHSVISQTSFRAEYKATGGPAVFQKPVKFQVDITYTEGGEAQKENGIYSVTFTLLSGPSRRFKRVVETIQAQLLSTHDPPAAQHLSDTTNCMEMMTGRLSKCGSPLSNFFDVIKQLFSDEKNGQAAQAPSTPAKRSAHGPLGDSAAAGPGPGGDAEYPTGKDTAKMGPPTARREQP
Sequence of Sigma intracellular receptor 2 (Q5BJF2 whole entry): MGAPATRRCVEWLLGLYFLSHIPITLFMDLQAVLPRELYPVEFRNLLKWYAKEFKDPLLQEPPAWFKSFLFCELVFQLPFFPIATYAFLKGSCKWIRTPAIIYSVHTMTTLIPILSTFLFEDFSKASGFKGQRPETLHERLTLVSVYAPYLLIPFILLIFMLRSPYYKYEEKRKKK
Sequence of Serine/threonine-protein kinase TNNI3K (Homo sapiens) (Q59H18 whole entry): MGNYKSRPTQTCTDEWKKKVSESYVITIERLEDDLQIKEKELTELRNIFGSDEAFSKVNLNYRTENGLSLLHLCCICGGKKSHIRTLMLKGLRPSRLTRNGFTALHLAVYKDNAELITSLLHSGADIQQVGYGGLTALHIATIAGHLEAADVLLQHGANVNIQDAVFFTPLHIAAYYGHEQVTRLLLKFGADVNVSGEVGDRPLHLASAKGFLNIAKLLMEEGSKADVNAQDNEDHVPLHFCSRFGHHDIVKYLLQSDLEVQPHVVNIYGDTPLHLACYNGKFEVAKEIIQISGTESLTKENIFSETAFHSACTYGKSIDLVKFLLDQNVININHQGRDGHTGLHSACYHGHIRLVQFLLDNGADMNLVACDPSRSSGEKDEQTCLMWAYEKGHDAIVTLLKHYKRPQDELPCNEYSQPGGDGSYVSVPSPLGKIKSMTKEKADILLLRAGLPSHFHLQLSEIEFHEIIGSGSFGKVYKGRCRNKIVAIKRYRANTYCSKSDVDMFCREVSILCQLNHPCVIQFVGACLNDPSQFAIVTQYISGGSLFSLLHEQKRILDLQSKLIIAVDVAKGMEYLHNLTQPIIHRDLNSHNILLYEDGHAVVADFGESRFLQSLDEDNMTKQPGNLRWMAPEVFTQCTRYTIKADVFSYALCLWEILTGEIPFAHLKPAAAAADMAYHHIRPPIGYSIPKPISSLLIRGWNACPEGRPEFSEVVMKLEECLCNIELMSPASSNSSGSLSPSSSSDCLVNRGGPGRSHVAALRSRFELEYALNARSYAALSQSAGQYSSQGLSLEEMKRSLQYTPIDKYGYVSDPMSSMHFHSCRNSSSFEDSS
Sequence of Cyclin-dependent kinase 2 homolog (Plasmodium falciparum (isolate 3D7)) (P61075 whole entry): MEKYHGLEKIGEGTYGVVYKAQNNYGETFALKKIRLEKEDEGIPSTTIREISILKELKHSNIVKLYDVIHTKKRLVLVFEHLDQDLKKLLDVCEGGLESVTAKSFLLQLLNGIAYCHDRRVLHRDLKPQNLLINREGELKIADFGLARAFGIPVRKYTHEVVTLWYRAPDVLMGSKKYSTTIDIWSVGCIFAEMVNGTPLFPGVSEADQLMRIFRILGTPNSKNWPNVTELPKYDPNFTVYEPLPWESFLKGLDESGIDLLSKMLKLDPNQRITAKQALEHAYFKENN
Sequence of Serine/threonine-protein kinase 32B (Homo sapiens) (Q9NY57 whole entry): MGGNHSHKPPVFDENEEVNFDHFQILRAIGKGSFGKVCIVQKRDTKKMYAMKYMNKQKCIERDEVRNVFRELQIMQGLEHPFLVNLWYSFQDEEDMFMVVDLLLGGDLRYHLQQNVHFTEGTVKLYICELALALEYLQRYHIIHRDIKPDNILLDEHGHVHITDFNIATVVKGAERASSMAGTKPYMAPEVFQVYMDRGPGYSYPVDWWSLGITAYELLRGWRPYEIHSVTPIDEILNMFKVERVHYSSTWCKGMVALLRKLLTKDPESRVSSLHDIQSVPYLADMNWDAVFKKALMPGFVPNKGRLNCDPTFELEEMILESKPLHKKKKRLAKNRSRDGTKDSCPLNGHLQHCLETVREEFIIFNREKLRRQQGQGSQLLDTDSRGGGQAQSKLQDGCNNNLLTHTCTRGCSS

CN(C)CC#Cc1ccc(OCCCc2sc(N3CCc4cccc(C(=O)Nc5nc6ccccc6s5)c4C3)nc2C(=O)O)c(F)c1 [A-1155463]
806 nM: Ki [1]
inactive: residual activity [2] 100% | residual activity [3] 100% | residual activity [4] 91% | residual activity [5] 100% | residual activity [6] 93% | residual activity [7] 100% | residual activity [8] 100% | residual activity [9] 94% | residual activity [10] 98% | residual activity [11] 89% | residual activity [12] 95% | residual activity [13] 90% | residual activity [14] 77% | residual activity [15] 100% | residual activity [16] 95% | residual activity [17] 100% | residual activity [18] 96% | residual activity [19] 100% | residual activity [20] 100% | residual activity [21] 91% | residual activity [22] 100% | residual activity [23] 87% | residual activity [24] 97% | residual activity [25] 100% | residual activity [26] 100% | residual activity [27] 100% | residual activity [28] 92% | residual activity [29] 98% | residual activity [30] 96% | residual activity [31] 100% | residual activity [32] 83% | residual activity [33] 100% | residual activity [34] 100% | residual activity [35] 90% | residual activity [36] 95% | inhibition [38] -3.48%
active: inhibition [37] 85.4%
